Source: ChEMBL document CHEMBL2073889, “ATP-dependent transport of beta-estradiol 17-(beta-D-glucuronide) in rat canalicular membrane vesicles” (Am J Physiol, 1996)

Biological target: Multidrug resistance protein 1a (Rattus norvegicus) (UniProt Q6PSM0)
Test: TP_TRANSPORTER: uptake, inhibited by C219 antibody in bile canalicular membrane vesicles from SD rat
Assay type: functional, cell membranes
Details: Sprague-Dawley, Bile canalicular membrane vesicle

Sequence of Multidrug resistance protein 1a (Rattus norvegicus) (Q6PSM0 as listed by the source): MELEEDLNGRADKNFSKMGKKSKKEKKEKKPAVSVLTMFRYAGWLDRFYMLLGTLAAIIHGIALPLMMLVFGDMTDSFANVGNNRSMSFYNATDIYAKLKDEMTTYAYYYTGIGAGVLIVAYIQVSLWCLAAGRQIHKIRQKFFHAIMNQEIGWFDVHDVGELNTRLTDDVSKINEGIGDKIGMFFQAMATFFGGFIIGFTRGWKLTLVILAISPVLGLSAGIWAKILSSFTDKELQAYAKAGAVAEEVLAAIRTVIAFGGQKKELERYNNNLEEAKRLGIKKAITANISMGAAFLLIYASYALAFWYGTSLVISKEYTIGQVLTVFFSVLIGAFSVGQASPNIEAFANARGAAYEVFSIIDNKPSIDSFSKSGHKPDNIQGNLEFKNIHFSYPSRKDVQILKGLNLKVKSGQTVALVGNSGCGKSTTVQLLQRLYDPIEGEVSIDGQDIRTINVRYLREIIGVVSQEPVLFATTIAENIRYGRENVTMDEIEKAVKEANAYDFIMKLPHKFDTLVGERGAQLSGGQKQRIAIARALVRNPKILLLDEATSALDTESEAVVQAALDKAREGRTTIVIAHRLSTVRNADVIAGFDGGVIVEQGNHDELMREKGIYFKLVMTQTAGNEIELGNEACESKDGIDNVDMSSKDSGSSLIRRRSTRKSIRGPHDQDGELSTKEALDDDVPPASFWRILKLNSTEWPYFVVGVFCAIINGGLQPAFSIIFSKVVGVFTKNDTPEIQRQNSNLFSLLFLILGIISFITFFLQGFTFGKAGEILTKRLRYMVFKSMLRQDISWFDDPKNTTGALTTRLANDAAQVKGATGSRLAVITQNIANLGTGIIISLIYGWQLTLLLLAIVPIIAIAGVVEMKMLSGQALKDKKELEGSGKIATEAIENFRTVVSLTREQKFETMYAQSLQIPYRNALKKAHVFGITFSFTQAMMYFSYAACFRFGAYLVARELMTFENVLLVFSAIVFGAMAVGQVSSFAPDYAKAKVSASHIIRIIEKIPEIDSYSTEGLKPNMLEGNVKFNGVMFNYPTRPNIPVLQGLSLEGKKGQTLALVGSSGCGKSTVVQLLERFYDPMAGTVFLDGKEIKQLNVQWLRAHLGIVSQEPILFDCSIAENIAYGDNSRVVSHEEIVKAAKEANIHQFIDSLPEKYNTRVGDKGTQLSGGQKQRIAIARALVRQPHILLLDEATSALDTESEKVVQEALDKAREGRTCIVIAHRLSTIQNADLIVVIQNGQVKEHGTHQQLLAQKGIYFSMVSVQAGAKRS

For `C[C@]12CC[C@@H]3c4ccc(O)cc4CC[C@H]3[C@@H]1CC[C@@H]2O[C@@H]1O[C@H](C(=O)O)[C@@H](O)[C@H](O)[C@H]1O`, the Activity was “substrate [+]”.
